From patent publication US11247965B2 (VenatoRx Pharmaceuticals, Inc., priority 2017, dated 2022) come the findings set out here.

For data set [1], the system named is HBV replication in HepAD38 cells. In words: Anti-HBV activity in HepAD38 cells, extracellular HBV DNA by QPCR. The class given is cell-based, HBV (genotype D, serotype ayw). Conditions: Hepatitis B virus, HePAD38, 168 h, read-out: Anti-HBV EC50, HepAD38 cells, extracellular HBV DNA by QPCR, 7 days of incubation. In outline:
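HepAD38 cells (HepG2 with tet-repressible HBV genotype D genome) seeded overnight, tetracycline removed, then treated 7 days with compounds (half-log dilutions, 30 μM–10 nM; 1:200 from DMSO). Supernatant HBV DNA quantified by QPCR against standard curve; % inhibition vs vehicle, EC50 by 4-parameter fit.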

Data set [2] can be described thus: In vitro cytotoxicity, MTT cell viability assay in HepG2 cells. The class given is cell-based. Conditions: human, Cytotoxicity CC50. Put shortly:
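CC50 values reflect loss of HepG2 viability after a 7-day exposure at 37 °C, 5% CO2. After 3-4 h with MTT, solubilized formazan was quantified at 492 nm relative to vehicle wells.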

SMILES strings stand for the structures.

On to `CCn1cc(C(=O)Nc2ccc(F)c(C)c2)cc1C(F)(F)C(=O)NC(C)(C)C` [Example 134, 5-(2-(tert-butylamino)-1,1-difluoro-2-oxoethyl)-1-ethyl-N-(4-fluoro-3-methylphenyl)-1H-pyrrole-3-carboxamide], for which the EC50 in data set [1] was below 5 µM. Moreover, in data set [2], the CC50 at 7 days is above 30 µM.
In the same order, the values of `Cc1cc(NC(=O)c2ccc([C@@H](O)CO)c(C(F)(F)C(=O)N3CCC(O)CC3)c2)ccc1F` [Example 116, (R)-3-(1,1-difluoro-2-(4-hydroxypiperidin-1-yl)-2-oxoethyl)-4-(1,2-dihydroxyethyl)-N-(4-fluoro-3-methylphenyl)benzamide] are above 30 µM and above 30 µM.
Taken in the same sequence, the figures for `CC[C@@H](C)NC(=O)C(F)(F)c1cc(C(=O)Nc2ccc(F)c(C)c2)cn1C` [Example 109, (R)-5-(2-(sec-butylamino)-1,1-difluoro-2-oxoethyl)-N-(4-fluoro-3-methylphenyl)-1-methyl-1H-pyrrole-3-carboxamide] were below 5 µM and above 30 µM.
`O=C(Nc1ccc(F)c(Cl)c1)c1ccc(F)c(C(F)(F)C(=O)N2CCC(O)(CO)CC2)c1` [Example 172, N-(3-chloro-4-fluorophenyl)-3-(1,1-difluoro-2-(4-hydroxy-4-(hydroxymethyl)piperidin-1-yl)-2-oxoethyl)-4-fluorobenzamide]: the EC50 in data set [1] is below 5 µM. In data set [2], this compound came in with a CC50 at 7 days of 5 to 30 µM.
On to `CC(C)(CO)NC(=O)C(F)(F)c1cc(C(=O)Nc2ccc(F)c(F)c2)ccc1F` [Example 24, 3-(1,1-difluoro-2-((1-hydroxy-2-methylpropan-2-yl)amino)-2-oxoethyl)-N-(3,4-difluorophenyl)-4-fluorobenzamide], for which the EC50 in data set [1] lay in the range of 5 to 30 µM. In data set [2], this compound gave a CC50 at 7 days of 5 to 30 µM.
Take `Cn1ccc(C(=O)Nc2ccc(F)c(Cl)c2)c1C(F)(F)C(=O)NC(C)(C)C` [Example 137, 2-(2-(tert-butylamino)-1,1-difluoro-2-oxoethyl)-N-(3-chloro-4-fluorophenyl)-1-methyl-1H-pyrrole-3-carboxamide]: the EC50 in data set [1] is below 5 µM. Also, the CC50 at 7 days in data set [2] was above 30 µM.
In the case of `Cc1cc(NC(=O)c2ccnc(C(F)(F)C(=O)N3C4CC[C@@H]3C[C@@H](C(N)=O)C4)c2)ccc1F` [Example 245, (1R,3s,5S)-8-(2,2-difluoro-2-(4-((4-fluoro-3-methylphenyl)carbamoyl)pyridin-2-yl)acetyl)-8-azabicyclo[3.2.1]octane-3-carboxamide], in data set [1], the EC50 was in the range of 5 to 30 µM. This compound also gave a CC50 at 7 days in data set [2] above 30 µM.
Consider `CCC(C)NC(=O)C(F)(F)c1cc(C(=O)Nc2ccc(F)c(F)c2)ccc1F` (stereo not shown) [Example 1, 3-(2-(sec-butylamino)-1,1-difluoro-2-oxoethyl)-N-(3,4-difluorophenyl)-4-fluorobenzamide], for which the EC50 in data set [1] was below 5 µM. In addition, the CC50 at 7 days in data set [2] was 5 to 30 µM.
Consider `O=C(Nc1ccc(F)c(Cl)c1)c1ccc(F)c(C(F)(F)C(=O)N2[C@@H]3CC[C@H]2C[C@H](O)C3)c1` [Example 171, N-(3-chloro-4-fluorophenyl)-3-(1,1-difluoro-2-((1R,3s,5S)-3-hydroxy-8-azabicyclo[3.2.1]octan-8-yl)-2-oxoethyl)-4-fluorobenzamide], for which the EC50 in data set [1] was below 5 µM. In data set [2], this compound came in with a CC50 at 7 days of 5 to 30 µM.
As for `Cc1cc(NC(=O)c2ccc(Cl)c(C(F)(F)C(=O)N3CCC(B(O)O)CC3)c2)ccc1F` [Example 148, (1-(2-(2-chloro-5-((4-fluoro-3-methylphenyl)carbamoyl)phenyl)-2,2-difluoroacetyl)piperidin-4-yl)boronic acid], the EC50 in data set [1] is below 5 µM. This compound gave a CC50 at 7 days in data set [2] above 30 µM.
In the same order, the values of `O=C(Nc1ccc(F)c(F)c1)c1ccc(F)c(C(F)(F)C(=O)NC2CCC(O)CC2)c1` (stereo not shown) [Example 26, 3-(1,1-difluoro-2-(((1r,4r)-4-hydroxycyclohexyl)amino)-2-oxoethyl)-N-(3,4-difluorophenyl)-4-fluorobenzamide] are below 5 µM and 5 to 30 µM.
Consider `COC(=O)N[C@@H]1C[C@H]2COC[C@@H](C1)N2C(=O)C(F)(F)c1cc(C(=O)Nc2ccc(F)c(C)c2)ccc1F` [Example 307, methyl ((1R,5S,7r)-9-(2,2-difluoro-2-(2-fluoro-5-((4-fluoro-3-methylphenyl)carbamoyl)phenyl)acetyl)-3-oxa-9-azabicyclo[3.3.1]nonan-7-yl)carbamate], for which the EC50 in data set [1] is below 5 µM. Also, the CC50 at 7 days in data set [2] was in the range of 5 to 30 µM.
In the same order, the values of `Cc1cc(NC(=O)c2ccc(F)c(C(F)(F)C(=O)N3CCC(O)C(F)(F)C3)c2)ccc1F` (stereo not shown) [Example 77, 3-(2-(3,3-difluoro-4-hydroxypiperidin-1-yl)-1,1-difluoro-2-oxoethyl)-4-fluoro-N-(4-fluoro-3-methylphenyl)benzamide] are below 5 µM and 5 to 30 µM.
For the compound `Cc1cc(NC(=O)c2cccc(C(F)(F)C(=O)N3C4CC[C@@H]3C[C@@H](O)C4)c2F)ccc1F` [Example 256, 3-(1,1-difluoro-2-((1R,3s,5S)-3-hydroxy-8-azabicyclo[3.2.1]octan-8-yl)-2-oxoethyl)-2-fluoro-N-(4-fluoro-3-methylphenyl)benzamide], the EC50 in data set [1] was below 5 µM. The compound also displayed a CC50 at 7 days in data set [2] of 5 to 30 µM.
In the same order, the values of `Cc1cc(NC(=O)c2nn(C)cc2C(F)(F)C(=O)NC(C)(C)C)ccc1F` [Example 166, 4-(2-(tert-butylamino)-1,1-difluoro-2-oxoethyl)-N-(4-fluoro-3-methylphenyl)-1-methyl-1H-pyrazole-3-carboxamide] are 5 to 30 µM and above 30 µM.
For `Cc1cc(NC(=O)c2ccc(F)c(C(F)(F)C(=O)N3CCC(N)CC3)c2)ccc1F` [Example 230, 3-(2-(4-aminopiperidin-1-yl)-1,1-difluoro-2-oxoethyl)-4-fluoro-N-(4-fluoro-3-methylphenyl)benzamide], the EC50 in data set [1] is below 5 µM. The CC50 at 7 days in data set [2] fell in the range of 5 to 30 µM.
With `Cc1cc(NC(=O)c2cc(C(F)(F)C(=O)NC(C)(C)C)n(C)c2)ccc1F` [Example 100, 5-(2-(tert-butylamino)-1,1-difluoro-2-oxoethyl)-N-(4-fluoro-3-methylphenyl)-1-methyl-1H-pyrrole-3-carboxamide], in data set [1], the EC50 is below 5 µM. Moreover, the CC50 at 7 days in data set [2] was above 30 µM.
`Cc1cc(NC(=O)c2ccc(F)c(C(F)(F)C(=O)N[C@H]3CCCC[C@@H]3O)c2)ccc1F` [Example 83, 3-(1,1-difluoro-2-(((1S,2S)-2-hydroxycyclohexyl)amino)-2-oxoethyl)-4-fluoro-N-(4-fluoro-3-methylphenyl)benzamide]: in data set [1], the EC50 lay within 5 to 30 µM. The CC50 at 7 days in data set [2] was above 30 µM.
In the case of `Cc1cc(NC(=O)c2cc(C(F)(F)C(=O)N3CCC(O)CC3)ccc2Cl)ccc1F` [Example 95, 2-chloro-5-(1,1-difluoro-2-(4-hydroxypiperidin-1-yl)-2-oxoethyl)-N-(4-fluoro-3-methylphenyl)benzamide], the EC50 in data set [1] is above 30 µM. Further, the CC50 at 7 days in data set [2] is above 30 µM.
On to `O=C(Nc1ccc(F)c(F)c1)c1ccc(F)c(C(F)(F)C(=O)N2CC[C@H](CO)C2)c1` [Example 13, (S)-3-(1,1-difluoro-2-(3-(hydroxymethyl)pyrrolidin-1-yl)-2-oxoethyl)-N-(3,4-difluorophenyl)-4-fluorobenzamide], for which, in data set [1], the 50% effective concentration (EC50) was in the range of 5 to 30 µM. In data set [2], the CC50 at 7 days lay in the range of 5 to 30 µM.
As for `O=C(Nc1ccc(F)c(F)c1)c1ccc(F)c(C(F)(F)C(=O)N2CCC(CO)CC2)c1` [Example 48, 3-(1,1-difluoro-2-(4-(hydroxymethyl)piperidin-1-yl)-2-oxoethyl)-N-(3,4-difluorophenyl)-4-fluorobenzamide], the EC50 in data set [1] is below 5 µM. Moreover, the CC50 at 7 days in data set [2] was 5 to 30 µM.
Turning to `Cc1cc(NC(=O)c2ccc(F)c(C(F)(F)C(=O)N3CCC(O)CC3(C)C)c2)ccc1F` (stereo not shown) [Example 71, 3-(1,1-difluoro-2-(4-hydroxy-2,2-dimethylpiperidin-1-yl)-2-oxoethyl)-4-fluoro-N-(4-fluoro-3-methylphenyl)benzamide], in data set [1], the EC50 was in the range of 5 to 30 µM. The compound further showed a CC50 at 7 days in data set [2] above 30 µM.
Consider `Cc1cc(NC(=O)c2ccc(F)c(C(F)(F)C(=O)N3CCC(O)CC3)n2)ccc1F` [Example 300, 6-(1,1-difluoro-2-(4-hydroxypiperidin-1-yl)-2-oxoethyl)-5-fluoro-N-(4-fluoro-3-methylphenyl)picolinamide], for which the EC50 in data set [1] is below 5 µM. Further, in data set [2], the CC50 at 7 days is 5 to 30 µM.
For `Cc1cc(NC(=O)c2ccc(F)c(C(F)(F)C(=O)N3CCC(O)(CO)CC3)c2)cc(F)n1` [Example 222, 3-(1,1-difluoro-2-(4-hydroxy-4-(hydroxymethyl)piperidin-1-yl)-2-oxoethyl)-4-fluoro-N-(2-fluoro-6-methylpyridin-4-yl)benzamide], the EC50 in data set [1] lay within 5 to 30 µM. In addition, the CC50 at 7 days in data set [2] was above 30 µM.
In the same order, the values of `Cn1ccc(C(=O)Nc2ccc(F)c(Cl)c2)c1C(F)(F)C(=O)NC1(C#N)CC1` [Example 147, N-(3-chloro-4-fluorophenyl)-2-(2-((1-cyanocyclopropyl)amino)-1,1-difluoro-2-oxoethyl)-1-methyl-1H-pyrrole-3-carboxamide] are 5 to 30 µM and above 30 µM.
In the case of `CC(C)n1cc(NC(=O)c2ccc(F)c(C(F)(F)C(=O)N3CCC(O)C(F)(F)C3)c2)cn1` (stereo not shown) [Example 183, 3-(2-(3,3-difluoro-4-hydroxypiperidin-1-yl)-1,1-difluoro-2-oxoethyl)-4-fluoro-N-(1-isopropyl-1H-pyrazol-4-yl)benzamide], the EC50 in data set [1] lay within 5 to 30 µM. The same compound had a CC50 at 7 days in data set [2] above 30 µM.
